Experimental data as given in US8791154B2 (Alcon Research, Ltd., priority 2011, dated 2014).
In brackets after ≈: the same amount, converted by molar mass.

Assay: Olopatadine solubility in water and in formulations
Format: physicochemical
Conditions: for solubility: Concentration (mg/mL) of solubilized olopatadine

In the case of `CN(C)CC/C=C1/c2ccccc2COc2ccc(CC(=O)O)cc21` [Olopatadine], the solubility (formulation with PVP K29/32, SBE-CD, PEG 400 and HPMC, pH 6.96, aqueous with cosolvent or surfactant or cyclodextrin, 4% PVP K29/32, 1.5% SBE-CD, 4% PEG 400, 0.6% HPMC, final pH 6.96) is reported as 7460 µg/mL (≈ 22.1 mM), the solubility (formulation with PVP K29/32, SBE-CD, PEG 400 and HPMC, pH 7.01, aqueous with cosolvent or surfactant or cyclodextrin, 4% PVP K29/32, 2.3% SBE-CD, 4% PEG 400, 0.6% HPMC, final pH 7.01) is reported as 8660 µg/mL (≈ 25.7 mM) and the solubility (formulation with PVP K29/32, SBE-CD, PEG 400 and HPMC, pH 7.02, aqueous with cosolvent or surfactant or cyclodextrin, 4% PVP K29/32, 2.2% SBE-CD, 4% PEG 400, 0.6% HPMC, final pH 7.02) is reported as 8620 µg/mL (≈ 25.5 mM). It also gave a solubility (formulation with PVP K29/32, SBE-CD, PEG 400 and HPMC, pH 7.04, aqueous with cosolvent or surfactant or cyclodextrin, 4% PVP K29/32, 2.5% SBE-CD, 4% PEG 400, 0.6% HPMC, final pH 7.04) of 9040 µg/mL (≈ 26.8 mM), a solubility (formulation with PVP K29/32, SBE-CD, PEG 400 and HPMC, pH 7.06, aqueous with cosolvent or surfactant or cyclodextrin, 4% PVP K29/32, 2.0% SBE-CD, 4% PEG 400, 0.6% HPMC, final pH 7.06) of 8110 µg/mL (≈ 24 mM) and a solubility (pH 6.97, aqueous with cosolvent or surfactant or cyclodextrin, 4% PVP K29/32, 1.5% SBE-CD, 4% PEG 400, no HPMC, final pH 6.97) of 6130 µg/mL (≈ 18.2 mM). For the same molecule, the solubility (pH 6.97, aqueous with cosolvent or surfactant or cyclodextrin, 4% PVP K29/32, 2.0% SBE-CD, 4% PEG 400, no HPMC, final pH 6.97) was 6740 µg/mL (≈ 20 mM), the solubility (pH 6.98, aqueous with cosolvent or surfactant or cyclodextrin, 4% PVP K29/32, 2.5% SBE-CD, 4% PEG 400, no HPMC, final pH 6.98) was 7340 µg/mL (≈ 21.8 mM) and the solubility (pH 7.01, aqueous with cosolvent or surfactant or cyclodextrin, 4% PVP K29/32, 2.2% SBE-CD, 4% PEG 400, no HPMC, final pH 7.01) was 6970 µg/mL (≈ 20.7 mM). The solubility (pH 7.02, aqueous with cosolvent or surfactant or cyclodextrin, 4% PVP K29/32, 2.3% SBE-CD, 4% PEG 400, no HPMC, final pH 7.02) was 7160 µg/mL (≈ 21.2 mM) and the solubility in water (water, pH about 7.0, room temperature, olopatadine by itself) was “about 0.18 w/v %”.
